Experimental data taken from patent publication US20170290814A1, “METHODS OF TREATMENT OF CHOLESTASIS AND FIBROSIS” (GENFIT, priority 2016, published 2017).

Columns and labels:
[1] = tested on: TGFβ1-induced expression of COL1A1 protein in human HSC; experiment: Col1α1 ELISA on supernatants of TGFβ1-activated human HSC; assay type: cell-based; details: 48 h
Procedure: The human primary hepatic stellate cells (hHSC) (Innoprot) were cultured in STeCM medium (ScienCell cat #5301) that was supplemented with 2% fetal bovine serum (FBS, ScienCell cat #0010), 1% penicillin/streptomycin (ScienCell cat #0503) and stellate cell growth supplement (SteCGS; ScienCell cat #5352). Cell culture flasks were coated with Poly-L Lysine (Sigma cat #P4707) for a better adherence.
The human primary hepatic stellate cells (hHSC) (Innoprot) were cultured under standard conditions, as described above. The cells were subsequently plated at a density of 2×10^4cells/well or 6,5×10^3 cells/well into 96-well or 384-well plates respectively. The next day, cell-culture medium was removed, and cells were washed with PBS (Invitrogen cat #14190). Then, hHSC were deprived for 24 hours in serum-free and SteCGS-free medium. For the treatments with compounds of formula (I), the serum-deprived hHSC were preincubated for 1 hour with the compounds followed by addition of the profibrogenic stimuli TGFβ1 (PeproTech cat #100-21, 1 ng/mL) in serum-free and SteCGS-free medium for an additional 48 hour period. At the end of treatment, the cell culture supernatants of treated-HSC were transferred into a new plate before storage at −20° C.The cells were washed with PBS (Invitrogen, cat #14190) before the addition of lysis buffer (CelLytic™ MT reagent; Sigma #C3228). Plates were then incubated for 30 min on ice using a plate shaker, before storage at −20° C.
The level of the human pro-Collagen α1 (col1α1) was measured using a Sandwich ELISA (R&D systems,). Briefly, the wells of an ELISA plate were first coated with the capture antibody at room temperature overnight. After 3 washes in PBS +0.05% Tween 20, a blocking solution consisting of PBS +1% BSA was added for one hour followed by another washing cycle. […]
Serum-deprived HSC were preincubated for 1 hour with RM-5061 before the activation with the profibrogenic cytokine TGFβ1 (1 ng/ml). After 48 hours of incubation, the cellular α-SMA content as well as secreted COL1A1 were measured by ELISA. […]

[2] = tested on: TGFβ1-induced expression of α-SMA protein in NHLF; experiment: α-SMA ELISA in TGFβ1-activated normal human lung fibroblasts; assay type: cell-based; details: TGFβ1 1 ng/ml, 48 h
Procedure: Serum-deprived NHLF were preincubated for 1 hour with RM-5061 before the activation with the profibrogenic cytokine TGFβ1 (1 ng/ml). After 48 hours of incubation, the expression of α-SMA was measured by ELISA. The obtained values were transformed into percentage inhibition over TGFβ1 control. Data are presented as mean (quadruplicates)±standard error of the mean (SEM). Statistical analyses were performed by kruskal-Wallis test followed by Dunn's multiple comparison tests, using GraphPad Prism 5.02 software. [*: p<0.05; **: p<0.01; ***: p<0.001 (comparison versus TGFβ1 1 ng/mL group)]. The curve fitting and the calculation of half maximal inhibitory concentration (IC50) were performed with XLFit software 5.3.1.3.
Cpd.5 was added to serum-deprived lung fibroblasts (NHLF) 1 hour before the activation with TGFβ1 (1 ng/ml). After 48 hours of incubation, the expression of α-SMA was measured by ELISA. The obtained values were transformed into percentage inhibition over TGFβ1 control. Data are presented as mean (triplicates)±standard deviation (SD). Statistical analyses were performed by one-way ANOVA followed by Bonferroni post-hoc tests, using Sigma Plot 11.0 software. [*: p<0.05; **: p<0.01; ***: p<0.001 (comparison versus TGFβ1 1 ng/mL group)].
The Normal Human Lung Fibroblasts (NHLF) (Lonza) were cultured in Fibroblast Basal Medium (FBM) (Lonza cat #CC-3131) that was supplemented with FGM-2 SingleQuots™ Kit (Lonza cat #CC-3132). The complete medium contains 2% fetal bovine serum. For the activation experiments with TGFβ1, the NHLF were plated at a density of 5×10^3 cells per well in 96-well plates. The next day, cell-culture medium was removed, and cells were washed with PBS (Invitrogen cat #14190). NHLF were deprived for 24 hours in serum-free, insulin-free and rhFGF-B-free medium. […]
The level of α-SMA was measured using a Sandwich ELISA. […]

SMILES | effect on COL1A1 in human HSC ([1]; TGFβ1 1 ng/ml) | IC50 ([1]; secreted COL1A1, TGFβ1 1 ng/ml) [nM] | Max % I Over TGFβ, COL1A1 ([1]; secreted COL1A1, TGFβ1 1 ng/ml) [%] | effect on TGFβ1-induced α-SMA in NHLF [2] | IC50 α-SMA in NHLF ([2]; compared with IC50 in human HSC)
CC(C)(C)[C@H](N)C(=O)Oc1ccccc1C(=O)Nc1ncc([N+](=O)[O-])s1 [RM-5061, (S)-2-(5-nitrothiazol-2-ylcarbamoyl)phenyl 2-amino-3,3-dimethylbutanoate] | reduced in a comparable manner | 2670 | 43 | inhibits | comparable IC50
[2H]C([2H])([2H])C(=O)Oc1ccccc1C(=O)Nc1ncc([N+](=O)[O-])s1 [Cpd.5, 2-[(5-nitro-1,3-thiazol-2-yl)carbamoyl]phenyl (d3)ethanoate] | – | – | – | inhibits | –
